In patent US7297694B2, “Pyridylfurans and pyrroles as Raf kinase inhibitors” (SmithKline Beechum P.L.C., priority 2001, dated 2007) one finds Kd and IC50 data, which are given here for one molecule.

Usually Kd stands for the constant that tells how readily two partners part at equilibrium. The low end stands for a tighter complex, the high end for a looser complex. By IC50 is commonly meant the point on the concentration scale where inhibition reaches its midpoint.

The target in one experiment is B-Raf (Homo sapiens, UniProt P15056). As to the kind of experiment: Fluorescence Anisotropy Kinase Binding Assay (Assay 1). An excerpt: Fluorescence Anisotropy Kinase Binding Assay
Chain of B-Raf (P15056 whole entry): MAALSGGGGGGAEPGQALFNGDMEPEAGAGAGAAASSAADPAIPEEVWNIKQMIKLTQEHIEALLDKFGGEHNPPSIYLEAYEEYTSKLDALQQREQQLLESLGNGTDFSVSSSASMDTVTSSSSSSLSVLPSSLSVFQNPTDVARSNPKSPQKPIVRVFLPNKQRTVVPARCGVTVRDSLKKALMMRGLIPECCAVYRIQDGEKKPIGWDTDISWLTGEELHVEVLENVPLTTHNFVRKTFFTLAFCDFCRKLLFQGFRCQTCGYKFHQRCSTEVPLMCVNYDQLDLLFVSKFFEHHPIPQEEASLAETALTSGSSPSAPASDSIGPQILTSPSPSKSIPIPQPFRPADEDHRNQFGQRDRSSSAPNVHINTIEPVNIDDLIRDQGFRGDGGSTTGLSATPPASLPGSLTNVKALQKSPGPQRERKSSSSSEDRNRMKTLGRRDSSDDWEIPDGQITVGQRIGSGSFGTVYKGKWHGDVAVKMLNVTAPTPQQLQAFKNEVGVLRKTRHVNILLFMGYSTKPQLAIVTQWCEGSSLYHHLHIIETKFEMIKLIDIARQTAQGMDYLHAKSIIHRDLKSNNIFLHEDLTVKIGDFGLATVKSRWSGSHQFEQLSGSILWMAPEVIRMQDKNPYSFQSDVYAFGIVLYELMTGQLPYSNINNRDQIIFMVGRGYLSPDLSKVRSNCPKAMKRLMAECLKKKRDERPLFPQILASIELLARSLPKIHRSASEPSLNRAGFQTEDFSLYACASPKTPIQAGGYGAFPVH
The concentration of kinase enzyme should preferably be ≧1×Kf. The concentration of fluorescent ligand required will depend on the instrumentation used, and the fluorescent and physicochemical properties. The concentration used must be lower than the concentration of kinase enzyme, and preferably less than half the kinase enzyme concentration. A typical protocol is:
All compounds are serially diluted in DMSO, then by a one step dilution into buffer of comparison, 50 mM HEPES, […] pH7.5, 1 mM CHAPS, 10 mM MgCL2, for the assay.
B-Raf Enzyme concentration: 1 nM
Fluorescent ligand concentration: 0.5 nM
Test compound concentration: 0.5 nM -100 uM
Components incubated in 10 ul final volume in LJL HE 384 type B black microtitre plate until equilibrium reached (Over 3 h, up to 30 h)
Fluorescence anisotropy read in an LJL Acquest.
• Ki=dissociation constant for inhibitor binding • Kf=dissociation constant for fluorescent ligand binding
The fluorescent ligand is the following compound:
which is derived from 5-[2-(4-aminomethylphenyl)-5-pyridin-4-yl]-1H-imidazol4-yl]-2-chlorophenol and rhodamine green.

Experiment [1] relates to Human diploid foreskin fibroblasts (HFF). As to the kind of experiment: XTT 72 hr Growth Inhibition (Assay 3), HFF. Type of experiment: cell-based. The note with it: Fibroblast, normal, B-Raf wt, Ras wt. The procedure: (§1) XTT 72 hr Growth Inhibition Protocol for Mammalian Cultured Cells (Assay 3)
(§2) Human diploid foreskin fibroblasts (HFF) or human colon carcinoma (Colo 201) cells were grown in Dulbecco's modified Eagle's medium (DMEM) (Invitrogen/Life Technologies) containing 10% fetal bovine serum (FBS) and the antibiotics penicillin (100 Units/ml) and streotomycin (100 micrograms/ml) (Invitrogen/Life Technologies). Growth was at 37° C. in humidified 5% CO2 incubators in 75 cm^2 plastic flasks. Cells were harvested using 0.25% trypsin/1 mM ethylenediaminetetraacetic acid (EDTA), resuspended in growth medium, and counted using a hemocytometer. Flat-bottomed 96-well plates were seeded with 2×10^3 cells/well in a volume of 200 ul from trypsinized exponentially growing cultures. To “blank” wells, growth medium was added with no additions. Cells were incubated overnight to permit attachment.
(§3) Next day, medium from wells that contained cells was replaced with 180 microliters of fresh medium. Appropriate dilutions of test compounds were added to the wells from stock soloutions of compound dissolved in dimethyl sulfoxide (DMSO); final DMSO concentration in all wells was 0.2%. […] Absorbance at 450 nm was then determined using a 96-well UV plate reader (Molecular Devices). Under these conditions, absorbance of untreated control cells at 450 nm was at least 1.0 optical density unit/ml. […]
For orientation: Tetrazolium dyes change colour on reduction, which living cells bring about.

In experiment [2] the test system is human colon carcinoma (Colo 201) cells. As to the kind of experiment: XTT 72 hr Growth Inhibition (Assay 3), Colo201. Type of experiment: cell-based. The note with it: Colorectal cancer, B-Raf ND, Ras ND. The procedure: as §1, §2, §3
Experiment [3] relates to colon carcinoma (Colo 205). As to the kind of experiment: Methylene Blue Growth Inhibition Assay (Assay 2), Colo205. Format: cell-based. The note with it: Homo sapiens, Colorectal cancer, B-Raf V599E, Ras wt.
The subject of the next experiment is human melanoma A375P. The experiment is described as follows: Methylene Blue Growth Inhibition Assay (Assay 2), A375P. Format: cell-based. To be noted: B-Raf V599E, Ras wt.
In another experiment the test system is human melanoma SKMEL3. The experiment is described as follows: Methylene Blue Growth Inhibition Assay (Assay 2), SKMEL3. Type of experiment: cell-based. To be noted: SK-MEL3, B-Raf V599E, Ras wt.
The subject of a further experiment is human melanoma SKMEL2. As to the kind of experiment: Methylene Blue Growth Inhibition Assay (Assay 2), SKMEL2. Type of experiment: cell-based. To be noted: SK-MEL-2, B-Raf wt, [Q6IR]N-Ras.

For `CN(C)CCOc1ccc(-c2cc(-c3ccc4c(c3)CCC4=NO)c(-c3ccncc3)o2)cc1` [Example 4, 5-{5-[4-(2-Dimethylaminoethoxy)phenyl]-2-pyridin-4yl-furan-3-yl}indan-1-one oxime], on B-Raf, the Kd was 1 nM. Further, the IC50 in experiment [1] turned out to be 7100 nM; in experiment [2] it was 500 nM; in experiment [3], 110 nM; in the experiment with human melanoma A375P it was 81 nM; in the experiment with human melanoma SKMEL3, 1000 nM; in the experiment with human melanoma SKMEL2 it was 220 nM.
